# Measured values published in US20190367871A1, “EMBRYONIC STEM CELL MEDIA AND CULTURE” (YISSUM RESEARCH DEVELOPMENT COMPANY OF THE HEBREW …, priority 2018, published 2019).
# Legend:
# [1] = test system: diploid hESCs; test: Growth curve of hESCs (CellTiter-Glo luminescent cell viability assay); assay type: cell-based, human
# Procedure: All genes were targeted with commercial pooled siRNAs to increase the specificity of the knockdown. esiRNAs for SALL4, DSCC1 and SEPHS1 and the control esiRNA for Renilla luciferase were obtained from Sigma (cat. nos. EHU037061, EHU021301, EHU107861 and EHURLUC, respectively). siRNA for VRTN was obtained from GE Healthcare Dharmacon (cat. no. L-021159-02-0005). Briefly, 30-50 nM siRNA was mixed with 0.14 μl of DharmaFECT 1 transfection reagent (GE Healthcare Dharmacon) in Opti-MEM I reduced serum medium (Thermo Fisher Scientific) for 30 min. The transfection mix was added on a matrigel-coated well of a 96-well plate and 3,000 hESCs were plated on the transfection mix in the presence of mTeSR 1 medium. The cells were subsequently grown for 3-4 days and the mTeSR 1 medium was replaced every 24 h. Cell viability was assessed by a CellTiter-Glo luminescent cell viability assay according to the manufacturer's instructions (Promega). Luminescence reads for the target genes were normalized to control siRNA conditions, and the replicate experiments were averaged. For growth curves of IGF1-treated and control hESCs, cells were plated in matrigel-coated wells with equal numbers and their density was measured for four consecutive days with CellTiter-Glo luminescent cell viability assay (Promega). The density measured one day after plating was considered Day 0, after which cells were switched to MEF-conditioned medium containing 100 ng ml^−1 IGF1. Every day was normalized to Day 0 and replicate experiments were averaged.
# [2] = test system: hESCs; test: Apoptosis assay (Annexin V / PI flow cytometry); assay type: cell-based, human; conditions: IGF1-treated vs control diploid hESCs
# From the text: hESCs were trypsinized gently with TrypLE Select. Apoptotic cells were labelled with Annexin V and propidium iodide (PI) using the MEBCYTO Apoptosis Kit according to the manufacturer's instructions (MBL). Labelled cells were filtered through a 70 μm cell strainer and analysed in BD FACSAria III for the proportion of annexin V-positive cells.
# [3] = test system: hESCs; test: Cell-cycle profile by PI staining and flow cytometry; assay type: cell-based, human; conditions: IGF1-treated vs control diploid hESCs
# Procedure: PI staining was performed as described in Sagi, I., Egli, D. & Benvenisty, N. Identification and propagation of haploid human pluripotent stem cells. Nat. Protoc. 11, 2274-2286 (2016). Briefly, hESCs were trypsinized with TrypLE Select and fixed with cold methanol (4° C.). Fixed cells were treated with 200 μg ml^−1 RNase A (Sigma) for 30 min and stained with 50 μg ml^−1 PI for 5 min. Stained cells were filtered through a 70 μm cell strainer and analysed in BD FACSAria III for their cell-cycle profile.
# [4] = test system: hESCs; test: TRA-1-60 immunocytochemistry (flow cytometry of TRA-1-60-positive pluripotent cells); assay type: cell-based, human; conditions: IGF1-treated vs control diploid hESCs
# Procedure: hESCs were trypsinized with TrypLE Select. Cells were collected in cold PBS containing 10% KSR, centrifuged at 300 g for 5 min and resuspended in 200 μl PBS containing 10% KSR. PE-conjugated mouse anti-human TRA-1-60 antibody (1:40, BD Biosciences) was then incubated with the cells for 30 min at 4° C. Cells were washed with PBS containing 10% KSR twice, centrifuged at 300 g at 4° C. and resuspended in PBS with 10% KSR. Immunolabelled cells were filtered through a 70 μm cell strainer and analysed in BD FACSAria III for the proportion of TRA-1-60-positive cells.
# [5] = test system: hESCs; test: Effect of Bax inhibition on hESC growth (CellTiter-Glo luminescence); assay type: cell-based, human; conditions: 100 or 200 uM, after 24 hours, vs 0 uM
# Procedure: Next, we examined the effect of Bax inhibition on hESC growth. hESCs were treated with either 0, 100, or 200 uM of BAX-inhibiting peptide V5 (BIP-V5, Sigma). At time point zero when the peptide was added CellTiter-Glo reagent was also added to the cells and luminescence was measured with a plate reader. Bax inhibition increased the relative growth of the hESCs by 15-25% after 24 hours (FIG. 13).
# [6] = target: Bax (BCL2 associated X, apoptosis regulator) (human) (UniProt Q07812); test: cell-based or functional assay
# UniProt Q07812, sequence (Q07812 whole entry): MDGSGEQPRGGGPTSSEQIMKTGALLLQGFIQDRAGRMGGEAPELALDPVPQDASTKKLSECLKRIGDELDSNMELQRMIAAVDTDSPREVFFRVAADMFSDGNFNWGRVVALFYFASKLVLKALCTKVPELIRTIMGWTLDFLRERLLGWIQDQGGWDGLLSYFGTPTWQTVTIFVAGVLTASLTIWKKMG
# [7] = test system: human foreskin fibroblasts; test: Growth of fibroblasts under mTOR inhibitor treatment (CellTiter-Glo); assay type: cell-based; conditions: two days of treatment, low nanomolar concentrations
molecule,measurement,setting,value
insulin like growth factor 1 [IGF1],growth rate of diploid hESCs,"[1]; IGF1 100 ng ml^-1 in MEF-conditioned medium, especially low levels of KSR, vs untreated control",significantly increased the growth rate
same,rescue of rapamycin growth-inhibition of hESCs,[1]; rapamycin + IGF1 vs rapamycin alone,failed to rescue
same,percentage of apoptotic hESCs,[2],significantly decreases the percentage of apoptotic hESCs
same,cell-cycle (cells in G2/M phase),[3],not affecting
same,differentiation dynamics (TRA-1-60+ pluripotent cells),[4],not affecting
BAX-inhibiting peptide V5 [BIP-V5],increase in relative growth of hESCs,[5],15-25%
BAX-inhibiting peptide V5,relative growth of hESCs (CellTiter-Glo luminescence) after 24 hours,[6],15 to 25%
"CCC(=O)N1CCN(c2ccc(-n3c(=O)ccc4cnc5ccc(-c6cnc7ccccc7c6)cc5c43)cc2C(F)(F)F)CC1 [Torin 1, reference compound]",growth and survival of hESCs,"[1]; two days of treatment, low nanomolar concentrations",completely abolished
same,growth inhibition of fibroblasts,[7],up to 60%
